Where “and” joins values, the source holds several entries; their conditions need not be identical. Equal entries are not always repeated. Where two headings read alike, the source gives them in different places.
Assays:
[1] = tested on: TNT Quick Coupled Transcription/Translation System (luciferase synthesis); assay type: biochemical
WI‐26 VA4 cells = test: Puromycin incorporation assay; assay type: cell-based, human; conditions: for activity at 0.1 µM: WI26VA4, 100 nM; for activity at 0.3 µM: WI26VA4, 300 nM; for activity at 1 µM: WI26VA4, 1000 nM; for activity at 3 µM: WI26VA4, 3000 nM; for activity at 5 µM: WI26VA4, 5000 nM; for activity at 10 µM: WI26VA4, 10000 nM
Description: After being rinsed with cold PBS twice, the cells were collected and resuspended in 200 μl of the carbonate bicarbonate buffer (Sigma Aldrich, C3041‐50CAP) with protease inhibitor. The cell lysates were obtained by sonication and centrifugation at 20,000 g for 15 min at 4°C. After protein quantification using a Pierce™ BCA Protein Assay Kit (Thermo Fisher Scientific, 23225), 400 ng of the proteins was coated to ELISA plates for 18 h at 4°C. […] The plates were rinsed with the washing buffer for three times after each antibody incubation step. […] The amount of puromycin incorporated in proteins was determined by measuring the absorbance at 450 nm (reference wavelength at 620 nm). Experimental values marked in red with strikethrough text in the Figure Source Data file were excluded from the analysis. These values were determined by considering the values of biological and technical replicates under the same condition, as well as the values at the former and later chemical concentrations.

[2] = Homo sapiens, read-out: Puromycin, % of control, average
[3] = Homo sapiens, read-out: Puromycin, % of control, single replicate

## Cc1c(Cl)ccc2c1ncn2CC(=O)C[C@H]1NCCC[C@@H]1O [DWN11748]
[1]; 20 nM, Experiment #1, replicates, 0.02 µM
  TNT-luciferase % of control: 124.31 % of control and 118.51 % of control and 107.73 % of control
[1]; 20 nM, Experiment #2, replicates, 0.02 µM
  TNT-luciferase % of control: 122.22 % of control and 112.59 % of control and 102.96 % of control
[1]; 20 nM
  TNT-luciferase % of control, average: 114.72 % of control
[1]; 60 nM, Experiment #1, replicates, 0.06 µM
  TNT-luciferase % of control: 118.51 % of control and 116.02 % of control and 106.08 % of control
[1]; 60 nM, Experiment #2, replicates, 0.06 µM
  TNT-luciferase % of control: 117.78 % of control and 113.33 % of control and 103.70 % of control
[1]; 60 nM
  TNT-luciferase % of control, average: 112.57 % of control
[1]; 200 nM, Experiment #1, replicates, 0.2 µM
  TNT-luciferase % of control: 119.34 % of control and 112.71 % of control and 116.02 % of control
[1]; 200 nM, Experiment #2, replicates, 0.2 µM
  TNT-luciferase % of control: 136.30 % of control and 122.22 % of control and 131.11 % of control
[1]; 200 nM
  TNT-luciferase % of control, average: 122.95 % of control
[1]; 600 nM, Experiment #1, replicates, 0.6 µM
  TNT-luciferase % of control: 122.65 % of control and 113.54 % of control and 107.73 % of control
[1]; 600 nM, Experiment #2, replicates, 0.6 µM
  TNT-luciferase % of control: 109.63 % of control and 101.48 % of control and 108.89 % of control
[1]; 600 nM
  TNT-luciferase % of control, average: 110.65 % of control
[1]; 2000 nM, Experiment #1, replicates, 2 µM
  TNT-luciferase % of control: 77.24 % of control and 79.06 % of control and 67.79 % of control
[1]; 2000 nM, Experiment #2, replicates, 2 µM
  TNT-luciferase % of control: 73.56 % of control and 76.30 % of control and 68.37 % of control
[1]; 2000 nM
  TNT-luciferase % of control, average: 73.72 % of control
[1]; 6000 nM, Experiment #1, replicates, 6 µM
  TNT-luciferase % of control: 17.73 % of control and 16.82 % of control and 16.99 % of control
[1]; 6000 nM, Experiment #2, replicates, 6 µM
  TNT-luciferase % of control: 12.15 % of control and 12.07 % of control and 13.19 % of control
[1]; 6000 nM
  TNT-luciferase % of control, average: 14.83 % of control
[1]; 20000 nM, Experiment #1, replicates, 20 µM
  TNT-luciferase % of control: 0.54 % of control and 0.58 % of control and 0.61 % of control
[1]; 20000 nM, Experiment #2, replicates, 20 µM
  TNT-luciferase % of control: 0.11 % of control and 0.0948 % of control and 0.12 % of control
[1]; 20000 nM
  TNT-luciferase % of control, average: 0.35 % of control
[1]; 60000 nM, Experiment #1, replicates, 60 µM
  TNT-luciferase % of control: 0.02 % of control (2×) and 0.0164 % of control
[1]; 60000 nM, Experiment #2, replicates, 60 µM
  TNT-luciferase % of control: 0.000642 % of control and -0.00528 % of control and -0.00499 % of control
[1]; 60000 nM
  TNT-luciferase % of control, average: 0.00775 % of control
[1]; 200000 nM, Experiment #1, replicates, 200 µM
  TNT-luciferase % of control: 0.00754 % of control and 0.000331 % of control and -0.000994 % of control
[1]; 200000 nM, Experiment #2, replicates, 200 µM
  TNT-luciferase % of control: 0.0019 % of control and 0.00487 % of control and -0.000321 % of control
[1]; 200000 nM
  TNT-luciferase % of control, average: 0.00222 % of control
[1]; log(inhibitor) vs. response, variable slope (four parameters), concentration in nM
  TNT-luciferase LogIC50 (best-fit value): 3.407
[1]; log(inhibitor) vs. response, variable slope (four parameters), unit from head concentration (nM), read-out: TNT-luciferase IC50 (best-fit value)
  IC50: 2550 nM
WI‐26 VA4 cells; 300 nM, 0.3 µM
  Puromycin, % of control, single replicate: 100.32 % of control and 98.22 % of control and 104.21 % of control and 104.56 % of control and 103.89 % of control and 104.45 % of control and 100.10 % of control and 97.92 % of control
WI‐26 VA4 cells; 1000 nM, 1 µM
  Puromycin, % of control, single replicate: 97.71 % of control and 98.10 % of control and 102.31 % of control and 107.16 % of control and 101.57 % of control and 105.82 % of control and 108.83 % of control
WI‐26 VA4 cells; 3000 nM, 3 µM
  Puromycin, % of control, single replicate: 32.63 % of control
WI‐26 VA4 cells; 5000 nM, 5 µM
  Puromycin, % of control, single replicate: 22.79 % of control and 22.67 % of control and 25.49 % of control and 25.64 % of control and 24.99 % of control and 25.25 % of control and 25.95 % of control and 25.31 % of control
WI‐26 VA4 cells; 10000 nM, 10 µM
  Puromycin, % of control, single replicate: 12.21 % of control and 11.47 % of control and 15.58 % of control and 13.74 % of control and 13.61 % of control and 15.33 % of control and 15.25 % of control and 13.38 % of control
WI‐26 VA4 cells; 100000 nM, 100 µM
  Puromycin, % of control, single replicate: 0.86 % of control and 1.09 % of control and 0.96 % of control and 0.69 % of control and 0.0546 % of control and 1.21 % of control and 1.52 % of control and 1.41 % of control and 1.00 % of control
WI‐26 VA4 cells; [2]
  activity at 0.1 µM: 106%
  activity at 0.3 µM: 102%
  activity at 1 µM: 103%
  activity at 3 µM: 31.2%
  activity at 5 µM: 24.6%
  activity at 10 µM: 13.7%
WI‐26 VA4 cells; [3]
  activity at 0.1 µM: 113%
  activity at 0.3 µM: 102%
  activity at 1 µM: 101%
  activity at 3 µM: 29.7%
  activity at 5 µM: 23.1%
  activity at 10 µM: 12.4%
WI‐26 VA4 cells; Homo sapiens, WI26VA4, 30000 nM, read-out: Puromycin, % of control, average
  activity at 30 µM: 1.05%
WI‐26 VA4 cells; Homo sapiens, WI26VA4, 100000 nM, read-out: Puromycin, % of control, average
  activity at 100 µM: 0.98%
WI‐26 VA4 cells; Homo sapiens, WI26VA4, log(inhibitor) vs. response, variable slope (four parameters), read-out: Puromycin, IC50 (best-fit value)
  IC50: 2680 nM
WI‐26 VA4 cells; log(inhibitor) vs. response, variable slope (four parameters)
  Puromycin, HillSlope (best-fit value): -2.365
